In US11485700B2, “Synthesis of (+)-cannabinoids and their therapeutic effects” (SYMRISE AG, priority 2018, dated 2022):
Where two headings read alike, the source gives them in different places.

How the values were obtained:
CB2 receptor [1] = target: T1, CB2 receptor (Homo sapiens (Human), UniProt P34972); assay: In vitro binding to CB2 receptor, [3H]-CP55940 radioligand displacement
Protocol: (§1) Compounds with an expected profile as CB1 and/or CB2 receptor ligands were evaluated by competition studies that allow determining the affinity of these compounds (Ki values) for both receptors against a classical cannabinoid ligand. The competition studies were conducted with membranes transfected with either CB1 or CB2 receptors. For stock solutions the compounds were dissolved at concentrations of 50 and 100 mM and stored at −20° C.
(§2) 96-well plates and the tubes necessary for the experiment were siliconized with Sigmacote (Sigma). Membranes were resuspended in the corresponding buffer and were incubated with the radioligand and each compound for 90 min at 30° C. Non-specific binding was determined with 10 μM WIN55212-2 and 100% binding of the radioligand to the membrane was determined by its incubation with membrane and without any compound. Filtration was performed by a Harvester®filtermate (Perkin-Elmer) with Filtermat A GF/C filters pretreated with polyethylenimine 0.05%. After filtering, the filter was washed nine times with binding buffer, dried and a melt-on scintillation sheet (Meltilex™ A, Perkin Elmer) was melted onto it. Then, radioactivity was quantified by a liquid scintillation spectrophotometer (Wallac MicroBeta Trilux, Perkin-Elmer).
(§3) Radioligand displacement assays were used to evaluate the affinity of the new compounds using membranes from cells (HEK293EBNA) transfected with the CB1 or the CB2 receptors and [^3H]-CP55940 as radioligand. The evaluation of the compounds was conducted in two phases. The first phase consisted in a simple screening with a unique and high concentration of each compound (40 μM). The data was collected from at least three experiments performed in triplicate. […] This consisted of a competition study with [^3H]CP55940 (0.10 nM for CB1 and 0.15 nM for CB2) and different concentrations of the selected compounds (10^−4-10^−11M). The data was analyzed, by using GraphPad Prism® version 5.01 (GraphPad Software Inc., San Diego, Calif., USA), for the calculation of Ki values expressed as mean±SEM of at least three experiments performed in triplicate for each point.

[2] = test system: LPS-treated human monocytes; assay: LPS-induced inflammatory parameters in human monocytes; type: cell-based; conditions: for inhibition at 25 µM: Homo sapiens, Monocyte, maximal effect at 25 μM; for inhibition of LPS-induced IL-6 / inhibition of LPS-stimulated TNFalpha release: maximal effect, doses up to 25 μM
Protocol: (§4) Cell cultures: Human primary monocytes were extracted from the whole blood of medically healthy volunteers, who provided written informed consent at the local blood bank (University Hospital of Freiburg, Germany), following a standardized protocol (gradient preparation, Lymphocytes separation medium, PAN Biotech, P04-60125, Aidenbach, Germany) using completely endotoxin-free cultivation. Using 50 ml tubes, 25 ml Pancoll was loaded with 25 ml of blood (buffy coats). The gradient was established by centrifugation at 1800 rpm, 20° C. for 40 min with slow acceleration and deceleration. Peripheral blood mononuclear cells in the interphase were carefully removed and re-suspended in 50 ml pre-warmed phosphate-buffered saline (PBS) (Pan Biotech, P04-36500), followed by centrifugation for 10 min at 1600 rpm and 20° C. The supernatant was discarded and the pellet washed in 50 ml PBS and centrifuged as described above. The pellet was then re-suspended in 50 ml RPMI-1640 low-endotoxin medium supplemented with 10% human serum (Hexcell, Berlin, Germany, SP2080). After counting the number of cells in a particle counter (Euro Diagnostics, Krefeld, Germany), cells were seeded in 24-well plates for enzyme linked immunosorbent assay (ELISA) (2.2 mio. cells/well) or 96-well plates at a density of 2×10^4 cells/well for cell viability testing, and incubated at 37° C. with 5% CO2. The medium and the non-adherent cells (lymphocytes) were removed and fresh RPMI-1640 medium containing 1% human serum added. Enriched monocytes were then ready to be used for the experiments. Primary human fibroblasts and HaCat keratinocytes were obtained from the Uniklinik Freiburg. All cells were maintained in supplemented DMEM (Invitrogen, Life-Technologies, Darmstadt, Germany) medium containing 10% FBS (Bio&Sell, Feucht, Germany) and 1% antibiotics penicillin/streptomycin (from Invitrogen, DMEM complete medium) at 37° C. in a humidified atmosphere of 5% CO2.
Measurement of cytokines and PGE2 in primary human monocytes: Cells were incubated with LPS (Sigma-Aldrich, Taufkirchen, Germany, 10 ng/ml) for 24 h. The cannabinoids (5 doses) were added 30 min before LPS treatment. After 24 h, supernatants were removed, centrifuged and investigated for IL-1beta, IL-8, IL-6, TNFalpha, MMP9, isoprostane, and PGE2 concentrations in EIAs (PGE2 and isoprostane, from Cayman/Biomol, Hamburg, Germany) or ELISAs (IL-1beta, Hiss, Freiburg, Germany; TNFalpha, IL-6 and IL-8, ImmunoTools, Frysoithe, Germany, MMP9, Biotechne, Wiesbaden, Germany) using manufacturer's protocol. The respective extinction was determined using a 96-well plate reader (Berthold, Offenburg, Germany). Each dose was analyzed 4 times in two buffy coats from 2 different donors (2 buffy coats used from 2 different healthy blood donors with final n=4 values).

[3] = test system: IL-1-treated human dermal fibroblasts; assay: IL-1-induced inflammatory parameters in human dermal fibroblasts; type: cell-based; conditions: IL-1beta 10 U/ml, 24 h; for inhibition of IL-1-induced PGE2 / inhibition of IL-1-stimulated IL-6 release / inhibition of IL-1-stimulated IL-8 release: maximal effect, doses up to 25 μM
Protocol: as §4
Determination of inflammatory molecules in fibroblasts: Primary human fibroblasts were cultivated as described above and seeded (500000 cells/well) in 24-well plates. Cells were incubated with IL-1beta (Roche, Mannheim, Germany, 10 U/ml) in absence and presence of the cannabinoids (5 doses, n=3) for 24 h. Unstimulated cells served as a negative control. 24 h after cell stimulation, supernatants were removed, centrifuged and investigated for IL-6, PGE2, and IL-8 concentrations by ELISAs according to the manufacturer's protocol (PGE2 from Cayman/Biomol, Hamburg, Germany; IL-6, and IL-8 from Immuno-tools, Frisoythe, Germany). The respective extinction is determined using a 96-well plate reader (Berthold, Offenburg, Germany).

[4] = test system: PolyIC-treated human keratinocytes (HaCat); assay: Poly I:C-induced proteases in human HaCat keratinocytes; type: cell-based; conditions: Poly I:C 10 μg/ml, 24 h; for inhibition at 25 µM: Homo sapiens, HaCaT; for inhibition of Poly I:C-stimulated TIMP1: maximal effect, doses up to 25 μM
Protocol: as §4
Determination of MMPs and TIMPs in keratinocytes: Keratinocytes (HaCat) were cultivated as described above. Cells were seeded in 24-well plates incubated with Poly I:C (InvivoGen, San Diego, Calif.; USA, 10 μg/ml) in absence and presence of the cannabinoids (5 doses, n=3) for 24 h. Unstimulated cells served as a negative control. 24 h after cell stimulation, supernatants were removed, centrifuged and investigated for MMP1, MMP9 and TIMP1 concentrations by ELISAs according to the manufacturer's protocol (from Biotechne, Wiesbaden, Germany). The respective extinction was determined using a 96-well plate reader (Berthold, Offenburg, Germany).

primary human monocytes = assay: Cell viability in human monocytes (Alamar Blue); type: cell-based; conditions: 24 h
Protocol: Cell cultures: Human primary monocytes were extracted from the whole blood of medically healthy volunteers, who provided written informed consent at the local blood bank (University Hospital of Freiburg, Germany), following a standardized protocol (gradient preparation, Lymphocytes separation medium, PAN Biotech, P04-60125, Aidenbach, Germany) using completely endotoxin-free cultivation. Using 50 ml tubes, 25 ml Pancoll was loaded with 25 ml of blood (buffy coats). The gradient was established by centrifugation at 1800 rpm, 20° C. for 40 min with slow acceleration and deceleration. Peripheral blood mononuclear cells in the interphase were carefully removed and re-suspended in 50 ml pre-warmed phosphate-buffered saline (PBS) (Pan Biotech, P04-36500), followed by centrifugation for 10 min at 1600 rpm and 20° C. The supernatant was discarded and the pellet washed in 50 ml PBS and centrifuged as described above. […] Enriched monocytes were then ready to be used for the experiments. […]
Cell viability: Cells were incubated with the cannabinoids (3 doses, n=4) for 24 h. Cytotoxicity was analyzed by Alamar Blue staining (formazan). […] The plate was then incubated at 37° C. for 2 h in a humidified 5% CO2 atmosphere, and the color reaction determined using a 96-well plate reader (Berthold, Offenburg, Germany, excitation 544 nm, emission 590 nm). […]

CB1 receptor = CB1 receptor (Homo sapiens (Human), UniProt P21554); assay: In vitro binding to CB1 receptor, [3H]-CP55940 radioligand displacement; conditions: for CB1/CB2 selectivity: ratio of CB1-Ki to CB2-Ki
Protocol: as §1, §2, §3

[5] = test system: IL-1-treated human dermal fibroblasts; assay: IL-1-induced inflammatory parameters in human dermal fibroblasts; type: cell-based; conditions: 24 h
CB2 receptor [6] = target: T1, CB2 receptor; assay: CB2 antagonistic activity, CRE-Luc assay in HEK 293T-CB2 cells; type: cell-based; conditions: WIN 55,212-2 repression of forskolin-induced CRE-Luc
Protocol: HEK 293T-CB1 and HEK 293T-CB2 cells (stably transfected with CB1 and CB2 cDNAs) (10^5/ml) were incubated in 24-well plates and transiently transfected with 0.5 μg/ml of the plasmid CRE-Luc that contains six consensus cAMP responsive elements (CRE) linked to firefly luciferase. Transient transfections were performed with Rotifect (Carl Roth GmbH, Karlsruhe, Germany) according to the manufacturer's instructions and harvested 24 h after transfection.
For CB2 antagonistic activity in cells the potential repression of Forskolin-induced CRE-luc inhibition induced by the compounds was analyzed.
After six hours of stimulation the cells were lysed (in 25 mM Tris-phosphate pH 7.8, 8 mM MgCl2, 1 mM DTT, 1% Triton X-100, and 7% glycerol) and luciferase activity was measured using an Autolumat LB 9501 (Berthold Technologies, Bad Wildbad, Germany) following the instructions of the luciferase assay kit (Promega, Madison, Wis.). The background obtained with the lysis buffer was subtracted in each experimental value, and the specific transactivation expressed as fold induction over basal levels (CRE-Luc).
The potential antagonistic activities of the compounds on the CB2 receptor were studied in the following. […] The negative control (untreated cells, 0% activation) is not listed.

[7] = LPS 10 ng/ml, 24 h, read-out: inhibition of LPS-stimulated PGE2 release
[8] = read-out: inhibition of Poly I:C-stimulated MMP9
[9] = read-out: inhibition of Poly I:C-induced MMP1

Row | SMILES | Ki (CB2 receptor [1]) [nM] | inhibition at 25 µM [2, 7] [%] | doses inhibiting LPS-induced IL-6 ([2]; LPS 10 ng/ml, 24 h) [µM] | doses inhibiting LPS-stimulated PGE2 release ([2]; LPS 10 ng/ml, 24 h) [µM] | doses inhibiting LPS-stimulated TNFalpha release ([2]; LPS 10 ng/ml, 24 h) [µM] | inhibition of LPS-induced IL-6 ([2]; LPS 10 ng/ml, 24 h) | inhibition of LPS-stimulated TNFalpha release ([2]; LPS 10 ng/ml, 24 h) | doses inhibiting IL-1-induced PGE2 [3] [µM] | doses inhibiting IL-1-stimulated IL-6 release [3] [µM] | doses inhibiting IL-1-stimulated IL-8 release [3] [µM] | inhibition of IL-1-induced PGE2 [3] | inhibition of IL-1-stimulated IL-6 release [3] | inhibition of IL-1-stimulated IL-8 release [3] | inhibition at 25 µM [4, 8] [%] | inhibition of Poly I:C-stimulated TIMP1 [4] | doses affecting cell viability (primary human monocytes) [µM] | Ki (CB1 receptor) [nM] | CB1/CB2 selectivity (CB1 receptor) | doses increasing LPS-mediated IL-1beta ([2]; LPS 10 ng/ml, 24 h) [µM] | doses inhibiting LPS-induced IL-8 ([2]; LPS 10 ng/ml, 24 h) [µM] | other results
1 | C=C(C)[C@H]1CCC(C)=C[C@@H]1c1c(O)cc(CCCCC)c(C(=O)OCCO)c1O [(+)-CBD-GE, (+)-Cannabidiol glycolester] | 12.9 | ~80 | ≥ 0.1 | ≥ 0.1 | ≥ 0.1 | around 80% | approx. 40% | ≥ 5 | ≥ 5 | ≥ 5 | approx. 80% | around 95% | around 95% | 30 to 50 | 30-50% | – | – | – | – | – | inhibition at 25 µM ([2]; LPS 10 ng/ml, 24 h, read-out: inhibition of LPS-stimulated IL-1 release): ~40%; inhibition at 25 µM ([2]; LPS 10 ng/ml, 24 h, read-out: inhibition of LPS-stimulated isoprostane release): ~40%; doses inhibiting LPS-stimulated IL-1 release ([2]; LPS 10 ng/ml, 24 h): ≥ 0.1 µM; doses inhibiting LPS-stimulated isoprostane release ([2]; LPS 10 ng/ml, 24 h): ≥ 0.1 µM; enhancement of LPS-mediated MMP9, more than LPS values ([2]; doses of 5-25 μM): 20-60%
2 | C=C(C)[C@H]1CCC(C)=C[C@@H]1c1c(O)cc(CCC)cc1O [(+)-CBDV, (+)-Cannabidivarin] | 33.1 | – | – | – | – | – | – | – | ≥ 5 | ≥ 5 | more than 80% | – | – | – | – | ≥ 25 | – | – | – | – | doses enhancing Poly I:C-stimulated MMP1 [4]: 25 µM
3 | C=C(C)[C@H]1CCC(C)=C[C@@H]1c1c(O)cc(CCCCC)c(C(=O)OC)c1O [(+)-CBD-ME, (+)-Cannabidiol methylester] | 28 | – | – | – | – | around 20% | around 20% | – | – | – | – | – | – | – | 40% | – | 345 | 12.3 | 25 | – | doses increasing LPS-induced IL-8 ([2]; LPS 10 ng/ml, 24 h): 5 to 25 µM; dose that seems to be toxic in fibroblasts [5]: 25 µM
4 | COc1ccc(C(=O)c2c(C)n(CCN3CCOCC3)c3cc(I)ccc23)cc1 [AM630] | – | – | – | – | – | – | – | – | – | – | – | – | – | – | – | – | – | – | – | – | CB2 antagonistic activity (CB2 receptor [6]): prevented
5 | C=C(C)[C@H]1CCC(C)=C[C@@H]1c1c(O)cc(CCCCC)cc1O [(+)-CBD, (+)-Cannabidiol] | – | ~80 | – | ≥ 1 | ≥ 0.1 | – | around 80% | – | ≥ 0.1 | ≥ 0.1 | more than 80% | more than 90% | more than 90% | ~40 | ~70% | ≥ 25 | – | – | – | 25 | inhibition at 25 µM [4, 9]: ~40%; doses inhibiting Poly I:C-induced MMP1 [4]: 25 µM; doses inhibiting Poly I:C-stimulated MMP9 [4]: ≥ 5 µM; doses inhibiting Poly I:C-stimulated TIMP1 [4]: ≥ 5 µM
6 | C=C(C)[C@H]1CCC(C)=C[C@@H]1c1c(O)cc(CCCCC)c(C(=O)OCC(O)CCC)c1O (single isomer, unassigned; (+)) [(+)-CBD-HPE, (+)-Cannabidiol hydroxypentylester] | 0.8 | – | ≥ 10 | – | – | – | – | 25 | ≥ 10 | ≥ 10 | 50% | 95% | 95% | 40 | 60% | – | 3.1 | 3.9 | 25 | 25 | doses inhibiting LPS-stimulated MMP9 ([2]; LPS 10 ng/ml, 24 h): 25 µM; inhibition at 25 µM [4, 9]: 20%
